Experimental data taken from ChEMBL document CHEMBL5126512, “Current status of carbazole hybrids as anticancer agents” (Eur J Med Chem, 2022).

Legend:
[1] = system: MCF7; test: Anticancer activity against human MCF7 cells assessed as cell growth inhibition measured after 24 hrs by MTT assay; assay type: functional, cell-based; conditions: MCF7, 24 h
[2] = Cytotoxicity against human HFB4 cells assessed as cell growth inhibition measured after 24 hrs by MTT assay; assay type: toxicity, cell-based
[3] = target: Urokinase-type plasminogen activator (Homo sapiens, UniProt P00749); test: Inhibition of urokinase plasminogen activator in human MCF7 cells measured after 24 hrs by ELISA method; assay type: cell-based
[4] = system: HeLa; test: Antiproliferative activity against human HeLa cells assessed as cell growth inhibition by MTT assay; assay type: functional, cell-based
[5] = system: MDA-MB-231; test: Antiproliferative activity against human MDA-MB-231 cells assessed as cell growth inhibition by MTT assay; assay type: functional, cell-based
[6] = system: A549; test: Antiproliferative activity against human A549 cells assessed as cell growth inhibition by MTT assay; assay type: functional, cell-based
[7] = system: MCF7; test: Antiproliferative activity against human MCF7 cells assessed as cell growth inhibition by MTT assay; assay type: functional, cell-based
[8] = system: COLO 205; test: Antiproliferative activity against human COLO 205 cells assessed as cell growth inhibition by MTT assay; assay type: functional, cell-based
[9] = system: HT-29; test: Antiproliferative activity against human HT-29 cells assessed as cell growth inhibition measured after 48 hrs by MTT assay; assay type: functional, cell-based; conditions: HT-29, 48 h
[10] = system: HCT-116; test: Antiproliferative activity against human HCT-116 cells assessed as cell growth inhibition measured after 48 hrs by MTT assay; assay type: functional, cell-based; conditions: HCT-116, 48 h
[11] = system: HepG2; test: Cytotoxicity against human HepG2 cells assessed as cell growth inhibition measured after 72 hrs by MTT assay; assay type: functional, cell-based; conditions: HepG2, 72 h
[12] = Cytotoxicity against green monkey MARC145 cells assessed as cell growth inhibition measured after 72 hrs by MTT assay; assay type: toxicity, cell-based, Chlorocebus aethiops
[13] = Cytotoxicity against human A875 cells assessed as cell growth inhibition measured after 72 hrs by MTT assay; assay type: functional, cell-based; conditions: A875, 72 h
[14] = system: HEp-2; test: Cytotoxicity against human HEp-2 cells assessed as cell growth inhibition by MTT assay; assay type: functional, cell-based
[15] = system: MCF7; test: Cytotoxicity against human MCF7 cells assessed as cell growth inhibition by MTT assay; assay type: functional, cell-based
[16] = system: HeLa; test: Cytotoxicity against human HeLa cells assessed as cell growth inhibition by MTT assay; assay type: functional, cell-based
[17] = system: MDA-MB-231; test: Antiproliferative activity against human MDA-MB-231 cells assessed as cell growth inhibition measured after 48 hrs by SRB assay; assay type: functional, cell-based; conditions: MDA-MB-231, time 48 hrs
[18] = system: MCF7; test: Antiproliferative activity against human MCF7 cells assessed as cell growth inhibition measured after 48 hrs by SRB assay; assay type: functional, cell-based; conditions: MCF7, time 48 hrs
[19] = system: ASPC1; test: Anticancer activity against human ASPC1 cells assessed as cell growth inhibition measured after 72 hrs by Cell-Titre Glo luminescent cell viability assay; assay type: functional, cell-based; conditions: ASPC1, 72 h
[20] = system: SW1990; test: Anticancer activity against human SW1990 cells assessed as cell growth inhibition measured after 72 hrs by Cell-Titre Glo luminescent cell viability assay; assay type: functional, cell-based; conditions: SW1990, 72 h
[21] = system: HCT-116; test: Antiproliferative activity against human HCT-116 cells assessed as cell growth inhibition by MTT assay; assay type: functional, cell-based
[22] = system: SK-OV-3; test: Antiproliferative activity against human SK-OV-3 cells assessed as cell growth inhibition by MTT assay; assay type: functional, cell-based
[23] = system: K562; test: Antiproliferative activity against human K562 cells assessed as cell growth inhibition by MTT assay; assay type: functional, cell-based
[24] = system: HepG2; test: Cytotoxicity against human HepG2 cells assessed as cell growth inhibition measured after 48 hrs by MTT assay; assay type: functional, cell-based; conditions: HepG2, 48 h
[25] = system: HCT-116; test: Cytotoxicity against human HCT-116 cells assessed as cell growth inhibition measured after 48 hrs by MTT assay; assay type: functional, cell-based; conditions: HCT-116, 48 h
[26] = Cytotoxicity against human RPE-1 cells assessed as cell growth inhibition measured after 48 hrs by MTT assay; assay type: toxicity, cell-based; conditions: RPE-1 (TERT-RPE1) cells
[27] = system: MCF7; test: Cytotoxicity against human MCF7 cells assessed as cell growth inhibition measured after 48 hrs by MTT assay; assay type: functional, cell-based; conditions: MCF7, 48 h
[28] = system: A498; test: Antiproliferative activity against human A498 cells assessed as cell growth inhibition measured after 72 hrs by SRB assay; assay type: functional, cell-based; conditions: A498, 72 h
[29] = system: MCF7; test: Cytotoxicity against human MCF7 cells assessed as cell growth inhibition measured after 72 hrs by MTT assay; assay type: functional, cell-based; conditions: MCF7, 72 h
[30] = system: A549; test: Antiproliferative activity against human A549 cells assessed as cell growth inhibition measured after 72 hrs by SRB assay; assay type: functional, cell-based; conditions: A549, 72 h
[31] = system: HeLa; test: Cytotoxicity against human HeLa cells assessed as cell growth inhibition measured after 72 hrs by MTT assay; assay type: functional, cell-based; conditions: pooled result: one value given for 3 cell lines, strains, targets or settings
[32] = system: MDA-MB-231; test: Cytotoxicity against human MDA-MB-231 cells assessed as cell growth inhibition measured after 72 hrs by MTT assay; assay type: functional, cell-based; conditions: MDA-MB-231, 72 h
[33] = system: A549; test: Cytotoxicity against human A549 cells assessed as cell growth inhibition measured after 24 hrs by MTT assay; assay type: functional, cell-based; conditions: A549, 24 h, pooled result: one value given for 4 cell lines, strains, targets or settings

Which IC50 [1] does the source give for `c1cncc(C2c3[nH]c4ccccc4c3C(c3cccnc3)c3[nH]c4ccccc4c32)c1` (stereo unspecified) here?
Its IC50 is 4 µM.

And the IC50 at 24 h [2]?
The IC50 at 24 h was 80 µM.

What about the IC50 [3] of the same compound?
The IC50 was 2.7 µM.

Which results are given for `Oc1c(C(c2ccc(Br)cc2)N2CCCC2)ccc2[nH]c3ccccc3c12` (stereo unspecified)?
IC50 [4]: 5.4 µM; IC50 [5]: 5.4 µM

For `COc1ccc2[nH]c3c(C)cc(-c4cc(-c5ccc(F)cc5)nc(N)n4)c(C)c3c2c1`, which IC50 [6] is on record?
Its IC50 is 0.1 µM.

What about the IC50 [7] of the same compound?
Its IC50 is 0.1 µM.

What about the IC50 [8] of the same compound?
Its IC50 is 0.1 µM.

For `COc1ccc2c(c1)[nH]c1cc(O)c(CN3CCCCC3)cc12`, which IC50 [9] is on record?
The IC50 was 18 µM.

What about the IC50 [10] of the same compound?
The IC50 was 18 µM.

For `Cc1c(C(=O)NCCc2c[nH]c3ccccc23)ccc2c3ccccc3n(C)c12`, which IC50 [11] is on record?
The IC50 was > 53.8 µM.

And the IC50 at 72 h [12]?
The IC50 at 72 h was > 53.8 µM.

And the IC50 [13]?
Its IC50 is > 53.8 µM.

Which IC50 [14] does the source give for `O=C1c2ccsc2N=C2c3[nH]c4ccc(Br)cc4c3CCC12` (stereo unspecified) here?
Its IC50 is 5.75 µM.

What about the IC50 [15] of the same compound?
Its IC50 is 5.75 µM.

And the IC50 [16]?
The IC50 was 5.75 µM.

For `O=C(Cn1c2ccccc2c2ccccc21)NNC(c1ccc([N+](=O)[O-])cc1)N1CCNCC1` (stereo unspecified), which GI50 [17] is on record?
The GI50 was < 10 µM.

What about the GI50 [18] of the same compound?
Its GI50 is < 10 µM.

With `CCCCCCn1c2ccccc2c2cc(/C=N/NC(=O)c3ccncc3)ccc21` as the compound, how does the IC50 [19] read?
Its IC50 is 3.42 µM.

And the IC50 [20]?
The IC50 was 3.42 µM.

With `COc1ccc2[nH]c3c(C)cc(-c4cc(-c5ccc(C(F)(F)F)cc5)nc(N)n4)c(C)c3c2c1` as the compound, how does the IC50 [6] read?
Its IC50 is 0.1 µM.

What about the IC50 [7] of the same compound?
Its IC50 is 0.1 µM.

And the IC50 [8]?
The IC50 was 0.1 µM.

Which results are given for `O=Cc1c[nH]c2c1ccc1c3ccccc3n(CCCC(=O)NCCn3ccn4c5ccc(C(F)(F)F)cc5cc34)c12`?
IC50 [21]: 9 µM; IC50 [7]: 9 µM; IC50 [22]: 9 µM; IC50 [5]: 9 µM; IC50 [23]: 9 µM

With `COc1ccc(C(NNC(=O)Cn2c3ccccc3c3ccccc32)N2CCNCC2)cc1` (stereo unspecified) as the compound, how does the GI50 [17] read?
Its GI50 is < 10 µM.

What about the GI50 [18] of the same compound?
Its GI50 is < 10 µM.

Which IC50 [21] does the source give for `O=Cc1c[nH]c2c1ccc1c3ccccc3n(CCCC(=O)NCCn3ccn4c5ccccc5cc34)c12` here?
Its IC50 is 9 µM.

What about the IC50 [7] of the same compound?
Its IC50 is 9 µM.

And the IC50 [22]?
The IC50 was 9 µM.

And the IC50 [5]?
Its IC50 is 9 µM.

And the IC50 [23]?
The IC50 was 9 µM.

What does the source list for `CCn1c2ccccc2c2cc(NC(=O)c3c(N)n[nH]c3Nc3ccc(Cl)cc3)ccc21`?
IC50 [24]: 2.97 µM; IC50 [25]: 2.97 µM; IC50 at 48 h [26]: > 100 µM; IC50 [27]: 2.97 µM

Which results are given for `O=C1c2ccsc2N=C2c3[nH]c4ccc(Cl)cc4c3CCC12` (stereo unspecified)?
IC50 [14]: 3.6 µM; IC50 [15]: 3.6 µM; IC50 [16]: 3.6 µM

Which IC50 [11] does the source give for `Cc1c(C(=O)N/N=C/c2c[nH]c3ccccc23)ccc2c1[nH]c1ccccc12` here?
The IC50 was > 13.3 µM.

What does the source list for `Cc1c(C(=O)NCCc2c[nH]c3ccccc23)ccc2c1[nH]c1ccccc12`?
IC50 [11]: 20 µM; IC50 at 72 h [12]: 20 µM; IC50 [13]: 20 µM

With `Cc1c2ccncc2c(C)c2c1[nH]c1ccccc12` [ELLIPTECINE] as the compound, how does the IC50 [28] read?
Its IC50 is 1.74 µM.

And the IC50 [11]?
The IC50 was 1.05 µM.

What about the IC50 [14] of the same compound?
The IC50 was 9.85 µM.

And the IC50 [29]?
The IC50 was 1.05 µM.

What about the IC50 [30] of the same compound?
Its IC50 is 0.85 µM.

What about the IC50 [15] of the same compound?
The IC50 was 9.85 µM.

And the IC50 [16]?
Its IC50 is 9.85 µM.

And the IC50 [31]?
The IC50 was 1.05 µM.

What about the IC50 [32] of the same compound?
Its IC50 is 1.05 µM.

For `COc1cc([C@@H]2c3cc4c(cc3[C@@H](O[C@@H]3O[C@@H]5CO[C@@H](C)O[C@H]5[C@H](O)[C@H]3O)[C@H]3COC(=O)[C@H]23)OCO4)cc(OC)c1O` [ETOPOSIDE], which IC50 [33] is on record?
Its IC50 is 1.97 µM.

With `O=c1[nH]cc(F)c(=O)[nH]1` [FLUOROURACIL] as the compound, how does the IC50 [11] read?
Its IC50 is 72.3 µM.

What about the IC50 at 72 h [12] of the same compound?
Its IC50 at 72 h is 72.3 µM.

What about the IC50 [13] of the same compound?
Its IC50 is 72.3 µM.

For `Nc1ccn([C@@H]2O[C@H](CO)[C@@H](O)C2(F)F)c(=O)n1` [GEMCITABINE], which IC50 [19] is on record?
Its IC50 is 35.1 µM.

And the IC50 [20]?
The IC50 was 40.2 µM.
